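Protocol summary: plate cells (96-well), add compound at 5 concentrations, incubate 48 h, interpolate endpoints linearly. GI50: concentration for 50% inhibition of growth. At the TGI there is no net growth.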

This note sets out measurements from PubChem BioAssay (NCI).

Test systems include LOX IMVI melanoma; SN12C renal; SK-MEL-5 melanoma; DU-145 prostate; A498 renal; PC-3 prostate; SF-295 CNS; SK-MEL-28 melanoma; OVCAR-3 ovarian; 786-0 renal.
What all share (assay): NCI-60 cell line screen, 48 h

For the molecule `COc1ccc(C/C(C)=C(/c2ccc(OCCN3CCCCC3)cc2)c2ccc(OC(=O)NCc3ccccc3)cc2)cc1`, the GI50 in the assay with LOX IMVI melanoma is 0.421 µM; in the assay with SN12C renal it was 0.428 µM; in the assay on SK-MEL-5 melanoma, 0.421 µM; with DU-145 prostate it was 0.442 µM; with A498 renal, 0.398 µM; in the assay with PC-3 prostate, 0.398 µM. Further, the GI50 in the assay with SF-295 CNS is 0.436 µM; in the assay with SK-MEL-28 melanoma, 0.44 µM; with OVCAR-3 ovarian, 0.413 µM; in the assay on 786-0 renal it was 0.316 µM. Further, the TGI with LOX IMVI melanoma worked out at 0.779 µM; in the assay on SN12C renal, 0.8 µM; with SK-MEL-5 melanoma, 0.774 µM; with DU-145 prostate, 0.805 µM; in the assay on A498 renal it was 0.744 µM; with PC-3 prostate it was 0.778 µM. The TGI with SF-295 CNS amounted to 0.802 µM; with SK-MEL-28 melanoma, 0.818 µM; with OVCAR-3 ovarian, 0.762 µM; in the assay on 786-0 renal it was 0.674 µM.

Turning to `O=C(Nc1cccc(-n2cc(-c3ccncc3)c(-c3ccc(Cl)c(O)c3)n2)c1)Nc1cc(C(F)(F)F)cc(C(F)(F)F)c1`, the GI50 in the assay with LOX IMVI melanoma is 0.712 µM; in the assay on SN12C renal, 0.852 µM; in the assay with SK-MEL-5 melanoma it was 0.604 µM; with DU-145 prostate it was 0.963 µM; in the assay on A498 renal, 0.595 µM; with PC-3 prostate, 0.261 µM. Moreover, the GI50 is 0.618 µM in the assay on SF-295 CNS, 0.807 µM in the assay on SK-MEL-28 melanoma, 0.345 µM in the assay on OVCAR-3 ovarian and 1.02 µM in the assay with 786-0 renal. Also, the TGI is 1.4 µM with LOX IMVI melanoma; 3.14 µM in the assay with SN12C renal; 1.26 µM with SK-MEL-5 melanoma; 2.94 µM with DU-145 prostate; 2.3 µM in the assay with A498 renal; 2.24 µM in the assay on PC-3 prostate. The TGI in the assay with SF-295 CNS was 1.65 µM; with SK-MEL-28 melanoma, 1.61 µM; in the assay with OVCAR-3 ovarian, 1.11 µM; in the assay on 786-0 renal, 2.35 µM.

Turning to `C/C(=N/NC(=S)N1CCCCC1)c1ccccc1O`, the TGI in the assay on LOX IMVI melanoma was > 31.6 µM; in the assay with SN12C renal, > 31.6 µM; in the assay with SK-MEL-5 melanoma, > 100 µM; in the assay on DU-145 prostate it was > 31.6 µM; in the assay on A498 renal it was > 100 µM; in the assay on PC-3 prostate it was > 31.6 µM. The TGI in the assay with SF-295 CNS, with SK-MEL-28 melanoma, in the assay with OVCAR-3 ovarian and in the assay with 786-0 renal was > 31.6 µM in each case.

`C#CC#CC#CC#CC#CC#CC#CC#CCC1OCC(COC(=O)O[C@@H](C(=O)O[C@H]2C[C@@]3(O)[C@@H](OC(=O)c4ccccc4)[C@@H]4[C@]5(OC(C)=O)CO[C@@H]5C[C@H](O)[C@@]4(C)C(=O)[C@H](OC(C)=O)C(=C2C)C3(C)C)[C@@H](NC(=O)c2ccccc2)c2ccccc2)O1` (some centres not stated): the GI50 in the assay on LOX IMVI melanoma is 0.0275 µM; with SN12C renal it was 0.51 µM; in the assay with SK-MEL-5 melanoma, 0.671 µM; with DU-145 prostate it was 0.0961 µM; in the assay on A498 renal, 0.191 µM; in the assay on PC-3 prostate, 0.268 µM. The GI50 in the assay with SF-295 CNS is 0.581 µM; in the assay on SK-MEL-28 melanoma it was 0.25 µM; in the assay on OVCAR-3 ovarian, 0.0971 µM; in the assay with 786-0 renal, 2.15 µM. Also, the TGI was > 33.3 µM in the assay on LOX IMVI melanoma; > 33.3 µM in the assay with SN12C renal; > 9.85 µM in the assay with SK-MEL-5 melanoma; > 33.3 µM in the assay on PC-3 prostate; > 11.6 µM with SF-295 CNS; > 33.3 µM with SK-MEL-28 melanoma. In addition, the TGI with 786-0 renal was > 33.3 µM.

`Cc1cc([N+](=O)[O-])c(NS(=O)(=O)c2cccc(C(=O)O)c2)cc1-c1cccnc1`: the GI50 with LOX IMVI melanoma, in the assay with SN12C renal, in the assay with SK-MEL-5 melanoma, in the assay on DU-145 prostate, with A498 renal and in the assay on PC-3 prostate was > 100 µM throughout. The GI50 in the assay with SF-295 CNS, in the assay on SK-MEL-28 melanoma, with OVCAR-3 ovarian and with 786-0 renal was > 100 µM throughout. For the same molecule, the TGI with LOX IMVI melanoma, with SN12C renal, in the assay on SK-MEL-5 melanoma, in the assay on DU-145 prostate, in the assay on A498 renal and in the assay with PC-3 prostate was > 100 µM each time. The TGI in the assay on SF-295 CNS, in the assay with SK-MEL-28 melanoma, in the assay on OVCAR-3 ovarian and with 786-0 renal was > 100 µM each time.

Turning to `O=C1Nc2ccc(Br)cc2C1=Nc1cccnc1`, the TGI is 34.8 µM in the assay on LOX IMVI melanoma; 37.9 µM in the assay on SN12C renal; 31.8 µM in the assay with SK-MEL-5 melanoma; > 100 µM in the assay on DU-145 prostate; > 100 µM in the assay on A498 renal; 41.2 µM in the assay on PC-3 prostate. The TGI was > 100 µM in the assay with SF-295 CNS, 42 µM in the assay with SK-MEL-28 melanoma, 44.3 µM with OVCAR-3 ovarian and 44.7 µM in the assay on 786-0 renal.

Take `O=c1cnn(C2OC(CO)C(O)C2O)c(=S)[nH]1` (configuration not stated): the TGI was > 68.5 µM with LOX IMVI melanoma; > 100 µM in the assay on SN12C renal; > 100 µM in the assay on SK-MEL-5 melanoma; > 100 µM with DU-145 prostate; > 100 µM in the assay with A498 renal; > 100 µM in the assay on PC-3 prostate. Further, the TGI in the assay with SF-295 CNS, in the assay with SK-MEL-28 melanoma, in the assay on OVCAR-3 ovarian and in the assay on 786-0 renal was > 100 µM throughout.
